Source: ChEMBL document CHEMBL1759870, “Identification, structural properties and chelating capacity of miltipolone as a broad-spectrum inhibitor to cancer cells” (Eur J Med Chem, 2011)
Calls of active or inactive are those of the source. The rule behind the calls is not given here.

Legend:
PANC-1 [1] = test: Antiproliferative activity against human PANC1 cells at 2 uM after 96 hrs by MTT assay in presence of 1 uM of ferrous ion; format: functional, cell-based
HeLa [2] = test: Antiproliferative activity against human HeLa cells after 96 hrs by MTT assay; format: functional, cell-based
HT-1080 [3] = test: Antiproliferative activity against human HT1080 cells at 2 uM after 96 hrs by MTT assay in presence of cobalt ion; format: functional, cell-based
NCI-N87 [4] = test: Antiproliferative activity against human NCI-N87 cells at 2 uM after 96 hrs by MTT assay in presence of manganese ion; format: functional, cell-based
A549 [5] = test: Antiproliferative activity against human A549 cells at 2 uM after 96 hrs by MTT assay in presence of zinc ion; format: functional, cell-based
A-375 [6] = test: Antiproliferative activity against human A375 cells at 2 uM after 96 hrs by MTT assay in presence of ferric ion; format: functional, cell-based
NCI-N87 [7] = test: Antiproliferative activity against human NCI-N87 cells at 2 uM after 96 hrs by MTT assay in presence of zinc ion; format: functional, cell-based
PANC-1 [8] = test: Antiproliferative activity against human PANC1 cells at 2 uM after 96 hrs by MTT assay in presence of manganese ion; format: functional, cell-based
NCI-N87 [9] = test: Antiproliferative activity against human NCI-N87 cells at 2 uM after 96 hrs by MTT assay in presence of 1 uM of ferrous ion; format: functional, cell-based
A-375 [10] = test: Antiproliferative activity against human A375 cells at 2 uM after 96 hrs by MTT assay in presence of 1 uM of ferrous ion; format: functional, cell-based
Jurkat [11] = test: Antiproliferative activity against human Jurkat cells after 96 hrs by MTT assay; format: functional, cell-based
A-375 [12] = test: Antiproliferative activity against human A375 cells at 2 uM after 96 hrs by MTT assay in presence of manganese ion; format: functional, cell-based
HeLa [13] = test: Antiproliferative activity against human HeLa cells at 2 uM after 96 hrs by MTT assay in presence of manganese ion; format: functional, cell-based
Jurkat [14] = test: Antiproliferative activity against human Jurkat cells at 2 uM after 96 hrs by MTT assay in presence of ferric ion; format: functional, cell-based
HeLa [15] = test: Antiproliferative activity against human HeLa cells at 2 uM after 96 hrs by MTT assay in presence of ferrous ion; format: functional, cell-based
HeLa [16] = test: Antiproliferative activity against human HeLa cells at 2 uM after 96 hrs by MTT assay in presence of ferric ion; format: functional, cell-based
A549 [17] = test: Antiproliferative activity against human A549 cells after 96 hrs by MTT assay; format: functional, cell-based; conditions: A549, 96 h
Bel-7402 [18] = test: Antiproliferative activity against human Bel7402 cells at 2 uM after 96 hrs by MTT assay in presence of 1 uM of ferrous ion; format: functional, cell-based
[19] = Metal chelating activity of the compound assessed as manganese complex formation in doble-distiled water by UV-vis spectrometry; format: functional
MCF7 [20] = test: Antiproliferative activity against human MCF7 cells at 2 uM after 96 hrs by MTT assay in presence of zinc ion; format: functional, cell-based
A-375 [21] = test: Antiproliferative activity against human A375 cells at 2 uM after 96 hrs by MTT assay in presence of ferrous ion; format: functional, cell-based
MCF7 [22] = test: Antiproliferative activity against human MCF7 cells at 2 uM after 96 hrs by MTT assay in presence of ferrous ion; format: functional, cell-based
HepG2 [23] = test: Antiproliferative activity against human HepG2 cells at 2 uM after 96 hrs by MTT assay in presence of 1 uM of ferrous ion; format: functional, cell-based
HepG2 [24] = test: Antiproliferative activity against human HepG2 cells at 2 uM after 96 hrs by MTT assay in presence of ferric ion; format: functional, cell-based
PANC-1 [25] = test: Antiproliferative activity against human PANC1 cells after 96 hrs by MTT assay; format: functional, cell-based; conditions: PANC-1, 96 h
Jurkat [26] = test: Antiproliferative activity against human Jurkat cells at 2 uM after 96 hrs by MTT assay in presence of zinc ion; format: functional, cell-based
PANC-1 [27] = test: Antiproliferative activity against human PANC1 cells at 2 uM after 96 hrs by MTT assay in presence of cobalt ion; format: functional, cell-based
NCI-N87 [28] = test: Antiproliferative activity against human NCI-N87 cells after 96 hrs by MTT assay; format: functional, cell-based; conditions: NCI-N87, 96 h
HT-1080 [29] = test: Antiproliferative activity against human HT1080 cells at 2 uM after 96 hrs by MTT assay in presence of zinc ion; format: functional, cell-based
A-375 [30] = test: Antiproliferative activity against human A375 cells after 96 hrs by MTT assay; format: functional, cell-based; conditions: A-375, 96 h
MCF7 [31] = test: Antiproliferative activity against human MCF7 cells at 2 uM after 96 hrs by MTT assay in presence of ferric ion; format: functional, cell-based
A549 [32] = test: Antiproliferative activity against human A549 cells at 2 uM after 96 hrs by MTT assay in presence of ferric ion; format: functional, cell-based
MCF7 [33] = test: Antiproliferative activity against human MCF7 cells at 2 uM after 96 hrs by MTT assay in presence of 1 uM of ferrous ion; format: functional, cell-based
A549 [34] = test: Antiproliferative activity against human A549 cells at 2 uM after 96 hrs by MTT assay in presence of 1 uM of ferrous ion; format: functional, cell-based
HT-1080 [35] = test: Antiproliferative activity against human HT1080 cells at 2 uM after 96 hrs by MTT assay in presence of manganese ion; format: functional, cell-based
A549 [36] = test: Antiproliferative activity against human A549 cells at 2 uM after 96 hrs by MTT assay in presence of manganese ion; format: functional, cell-based
A549 [37] = test: Antiproliferative activity against human A549 cells at 2 uM after 96 hrs by MTT assay in presence of cobalt ion; format: functional, cell-based
Bel-7402 [38] = test: Antiproliferative activity against human Bel7402 cells at 2 uM after 96 hrs by MTT assay in presence of manganese ion; format: functional, cell-based

With `Cc1cc2c(cc(O)c1=O)[C@@]13CCCC(C)(C)[C@@H]1C[C@@H]2OC3` [MILTIPOLONE] the Activity (PANC-1 [1]) was “inactive”, the IC50 (HeLa [2]) was 1.44 µM and the Activity (HT-1080 [3]) was “Active”. For the same compound, the Activity (NCI-N87 [4]) was “Active”, the Activity (A549 [5]) was “Active” and the Activity (A-375 [6]) was “Active”. For the same compound, the Activity (NCI-N87 [7]) was “Active”, the Activity (PANC-1 [8]) was “Active” and the Activity (NCI-N87 [9]) was “inactive”. For the same compound, the Activity (A-375 [10]) was “inactive”, the IC50 (Jurkat [11]) was 1.4 µM and the Activity (A-375 [12]) was “Active”. The Activity (HeLa [13]) was “Active”, the Activity (Jurkat [14]) was “Active” and the Activity (HeLa [15]) was “inactive”. For the same compound, the Activity (HeLa [16]) was “Active”, the IC50 (A549 [17]) was 1.92 µM and the Activity (Bel-7402 [18]) was “Active”. For the same compound, the Activity [19] was “Active”, the Activity (MCF7 [20]) was “Active” and the Activity (A-375 [21]) was “inactive”. The Activity (MCF7 [22]) was “inactive”, the Activity (HepG2 [23]) was “inactive” and the Activity (HepG2 [24]) was “Active”. For the same compound, the IC50 (PANC-1 [25]) was 5.95 µM, the Activity (Jurkat [26]) was “Active” and the Activity (PANC-1 [27]) was “Active”. The IC50 (NCI-N87 [28]) was 1.6 µM, the Activity (HT-1080 [29]) was “Active” and the IC50 (A-375 [30]) was 3.5 µM. The Activity (MCF7 [31]) was “Active”, the Activity (A549 [32]) was “Active” and the Activity (MCF7 [33]) was “inactive”. For the same compound, the Activity (A549 [34]) was “inactive”, the Activity (HT-1080 [35]) was “Active” and the Activity (A549 [36]) was “Active”. The Activity (A549 [37]) was “Active” and the Activity (Bel-7402 [38]) was “Active”.
